Paper PMC12851022, “Targeting the Spliceosomal Protein USP39 Through Allosteric Ligands and PROTAC‐Induced Degradation” (Angewandte Chemie (International Ed. in English), 2025)

Key:
[1] = biological target: T1, USP39 (Homo sapiens, UniProt Q53GS9); assay: Western blot of USP39 levels in HeLa-WT cells; assay type: cell-based; design: endogenous in cells; host or cells: HeLa-WT; settings: MG132 0.25 µM, 24 h ST
T1 sequence (Q53GS9 1-565): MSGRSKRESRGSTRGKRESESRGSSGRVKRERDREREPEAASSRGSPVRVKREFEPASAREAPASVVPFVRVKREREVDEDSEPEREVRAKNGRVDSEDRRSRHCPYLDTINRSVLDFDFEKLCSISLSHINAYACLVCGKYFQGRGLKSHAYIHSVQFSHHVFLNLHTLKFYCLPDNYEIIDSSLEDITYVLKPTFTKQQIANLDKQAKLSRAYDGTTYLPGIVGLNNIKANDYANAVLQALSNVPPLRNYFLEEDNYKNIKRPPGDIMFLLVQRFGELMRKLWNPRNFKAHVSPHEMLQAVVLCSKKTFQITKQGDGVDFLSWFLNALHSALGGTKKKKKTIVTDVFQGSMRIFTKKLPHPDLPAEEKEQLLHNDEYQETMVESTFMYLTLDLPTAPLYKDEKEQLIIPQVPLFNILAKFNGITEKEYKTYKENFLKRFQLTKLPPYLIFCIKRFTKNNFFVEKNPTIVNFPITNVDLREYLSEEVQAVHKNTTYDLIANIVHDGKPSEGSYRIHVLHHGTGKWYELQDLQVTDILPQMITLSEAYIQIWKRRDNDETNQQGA
Experimental: (§1) Figure 4 Effective and selective degradation of USP39 in cells by USP39‐PROTACs. a) Optimization of cellular degradation assay in HeLa cells transiently overexpressing USP39‑OFP (HeLa‐USP39‐OFP). […] GAPDH was used as a loading control. g) Proteasome dependence of USP39 degradation. HeLa‐WT cells were co‐treated with MG132 (0.25 µM) or DMSO control and USP39_PROTAC_V1 for 24 h ST. h) Representative immunofluorescence images of HeLa‐USP39_OFP cells treated with DMSO (NT), USP39_PROTAC_V1 (10 nM, 24 h), or USP39_PROTAC_V1 + MLN4924 (1 µM), stained for USP39 (red) and nuclei (blue). i) Quantification of USP39 degradation by fluorescence microscopy, showing DC50 values of 13 nM without MLN4924 (orange) and 204 nM with MLN4924 (blue) (MLN4924 = 5 uM). j) VHL‐dependence of PROTAC‐induced degradation. Schematic of PROTAC recruitment to VHL via hydroxyl‐proline interactions (His115, Ser111). Western blot comparing USP39 levels in VHL WT and VHL KO HeLa cells treated with USP39_PROTAC_V1. k) Fluorescence assay in HEK293T cells co‐expressing USP39‑OFP and either VHL_WT‑EGFP or VHL_m (Δ91–121). […] Comparison of untreated (NT) and USP39_PROTAC_V1–treated (10 nM, 24 h) samples. Percent spliced/unspliced (S/U) ratios are shown, reflecting USP39‐deficiency–associated splicing defects. Data represent at least four independent biological replicates. […]

[2] = test system: HeLa-WT proteome; assay: Proteome-wide LC-MS/MS and western blot selectivity analysis in HeLa-WT cells; assay type: cell-based, human
Experimental: Figure 4 Effective and selective degradation of USP39 in cells by USP39‐PROTACs. a) Optimization of cellular degradation assay in HeLa cells transiently overexpressing USP39‑OFP (HeLa‐USP39‐OFP). […] GAPDH was used as a loading control. g) Proteasome dependence of USP39 degradation. HeLa‐WT cells were co‐treated with MG132 (0.25 µM) or DMSO control and USP39_PROTAC_V1 for 24 h ST. h) Representative immunofluorescence images of HeLa‐USP39_OFP cells treated with DMSO (NT), USP39_PROTAC_V1 (10 nM, 24 h), or USP39_PROTAC_V1 + MLN4924 (1 µM), stained for USP39 (red) and nuclei (blue). i) Quantification of USP39 degradation by fluorescence microscopy, showing DC50 values of 13 nM without MLN4924 (orange) and 204 nM with MLN4924 (blue) (MLN4924 = 5 uM). j) VHL‐dependence of PROTAC‐induced degradation. Schematic of PROTAC recruitment to VHL via hydroxyl‐proline interactions (His115, Ser111). Western blot comparing USP39 levels in VHL WT and VHL KO HeLa cells treated with USP39_PROTAC_V1. k) Fluorescence assay in HEK293T cells co‐expressing USP39‑OFP and either VHL_WT‑EGFP or VHL_m (Δ91–121). […] Comparison of untreated (NT) and USP39_PROTAC_V1–treated (10 nM, 24 h) samples. Percent spliced/unspliced (S/U) ratios are shown, reflecting USP39‐deficiency–associated splicing defects. Data represent at least four independent biological replicates.
To assess the selectivity of USP39 degradation, a proteome‐wide analysis was conducted using LC‐MS/MS based proteomics. […] These finding were further validated by western blot (WB) analysis, which confirmed consistent downregulation of USP39, ISG15, and NDRG1.

[3] = biological target: T2, USP39-OFP (Homo sapiens, UniProt P40337+Q53GS9); assay: Fluorescence degradation assay in HEK293T cells co-expressing USP39-OFP and VHL_WT-EGFP; assay type: cell-based; settings: VHL WT (VHL_WT-EGFP co-expressed)
T2 construct: expressed in transfected cells
T2 sequence (P40337 whole entry, one chain of several): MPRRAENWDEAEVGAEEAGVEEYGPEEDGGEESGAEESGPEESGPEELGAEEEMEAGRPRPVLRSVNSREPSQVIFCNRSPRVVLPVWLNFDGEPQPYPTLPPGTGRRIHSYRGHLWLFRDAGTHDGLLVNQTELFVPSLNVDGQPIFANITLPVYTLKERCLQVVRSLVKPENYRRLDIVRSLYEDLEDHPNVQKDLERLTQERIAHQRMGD
T2 sequence (Q15370 whole entry partner, one chain of several): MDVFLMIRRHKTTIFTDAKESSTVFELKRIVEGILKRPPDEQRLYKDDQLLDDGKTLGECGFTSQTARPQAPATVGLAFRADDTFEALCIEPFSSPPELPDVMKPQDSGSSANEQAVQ
T2 sequence (Q15369 whole entry partner, one chain of several): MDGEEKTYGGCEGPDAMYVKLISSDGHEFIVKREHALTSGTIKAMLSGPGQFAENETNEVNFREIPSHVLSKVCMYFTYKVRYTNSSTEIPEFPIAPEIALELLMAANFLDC
Experimental: as §1

[4] = test system: 5′ splice site usage in exon 1 of ZNF414 and CRK; assay: RT-PCR analysis of alternative splicing in ZNF414 and CRK transcripts; assay type: cell-based, human; settings: 10 nM, 24 h
Experimental: as §1

[5] = biological target: T3, USP39-OFP (Homo sapiens, UniProt Q53GS9); assay: Fluorescence degradation assay in HEK293T cells co-expressing USP39-OFP and VHL_m (Δ91–121); assay type: cell-based
T3 construct: expressed in transfected cells; host or cells: HEK293T
T3 sequence (Q53GS9 1-565): T1 sequence (Q53GS9 1-565)
Experimental: as §1

[6] = biological target: USP39 / VHL (Homo sapiens, UniProt P40337+Q53GS9); assay: Co-immunoprecipitation of VHL with western blot for ubiquitin, USP39 and VHL; assay type: cell-based; settings: in the presence of MLN4924
Sequence of USP39 / VHL (P40337 whole entry, one chain of several): as the sequence (P40337 whole entry, one chain of several) above
Sequence of USP39 / VHL (Q15370 whole entry partner, one chain of several): as the sequence (Q15370 whole entry partner, one chain of several) above
Sequence of USP39 / VHL (Q15369 whole entry partner, one chain of several): as the sequence (Q15369 whole entry partner, one chain of several) above

[7] = biological target: T4, USP39_T2 (Homo sapiens, UniProt Q53GS9); assay: Isothermal titration calorimetry (ITC); assay type: binding
T4 construct: USP39_T2 (ZNF domain only); made in house
T4 sequence (Q53GS9 103-200 limits assumed): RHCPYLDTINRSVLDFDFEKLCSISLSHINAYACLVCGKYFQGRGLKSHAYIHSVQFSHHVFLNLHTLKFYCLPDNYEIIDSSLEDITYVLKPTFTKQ

[8] = biological target: T1, USP39; assay: USP39 degradation across four cell lines (HeLa, HEK293T, LNCap, Kelly); assay type: cell-based; design: endogenous in cells; host or cells: HeLa-WT; HEK293T; LNCap; Kelly; settings: for Concentration at which USP39 degradation was initiated: HeLa, HEK293T, LNCap, Kelly

- USP39 degradation under co-treatment with proteasome inhibitor MG132 [1]: markedly suppressed USP39 degradation
- DC50 [3]: 1 nM
- Fold reduction of degradation effect in VHL_m versus VHL_WT cells [5]: more than 80 fold
- Kd [7]: 136 nM
- Concentration above which USP39 levels recover (hook-effect) [8]: above 500 nM
- Concentration at which USP39 degradation was initiated ([8]; 6 h of treatment): 5 nM
- Concentration at which USP39 degradation was initiated ([8]; 24 h of treatment): 1 nM
SMILES: Cc1ncsc1-c1ccc(CNC(=O)C2CC(O)CN2C(=O)C(NC(=O)CCOCCOCCOCCNC(=O)c2csc(Nc3ccc(Cl)cc3)n2)C(C)(C)C)cc1 (stereo not drawn) [USP39_PROTAC_V1]
- USP39 level in proteome-wide analysis ([2]; 5 nM and 50 nM, 24 h, over 6000 detectable proteins, p < 0.0001, log2FC < -4): most significantly downregulated protein
- NDRG1 and ISG15 levels (off-target) ([2]; 5 nM and 50 nM, 24 h, proteomics, validated by WB): significant downregulation
- USP5 and USP10 levels (homologues) ([2]; proteomic and immunoblot analyses): remained unaffected
- Cryptic 5′ splice site usage in ZNF414 and CRK [4]: reproduced these cryptic splicing events
- Co-immunoprecipitation from VHL pull-downs [6]: enrichment of USP39 and polymerized ubiquitin
